Experimental data as given in patent US8481525B2, “Kinase inhibitors and method of treating cancer with same” (University of Health Network, priority 2009, dated 2013).
Read-outs that look alike come from different tables or passages of the source.

How the values were obtained:
Aurora B = biological target: T1, Aurora B (Homo sapiens, UniProt Q96GD4); test: Aurora B Inhibition Assay (Z-Lyte); assay type: biochemical; details: 128 μM ATP; read-out: Aurora B IC50 Ranges
T1 construct: purchased Invitrogen PV3970
T1 sequence (Q96GD4 whole entry): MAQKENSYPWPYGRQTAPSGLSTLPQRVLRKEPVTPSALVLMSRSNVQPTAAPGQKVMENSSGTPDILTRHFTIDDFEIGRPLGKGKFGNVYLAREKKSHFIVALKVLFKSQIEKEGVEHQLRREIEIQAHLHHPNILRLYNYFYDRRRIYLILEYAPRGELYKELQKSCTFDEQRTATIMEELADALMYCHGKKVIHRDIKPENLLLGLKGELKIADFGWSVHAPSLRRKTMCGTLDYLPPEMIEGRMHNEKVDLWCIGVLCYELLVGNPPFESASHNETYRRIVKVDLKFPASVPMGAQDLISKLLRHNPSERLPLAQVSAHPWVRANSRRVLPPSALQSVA
Protocol: Aurora B inhibition was determined using the Z-Lyte assay kit from Invitrogen. […] The % inhibition values were determined according to the manufacturer's directions and IC50 values were obtained using a non-linear 4 point logistic curve fit (XLfit4, IDBS)

human PLK4 = biological target: T2, human PLK4 (Homo sapiens, UniProt O00444); test: PLK4 Inhibition Assay (indirect ELISA); assay type: biochemical
T2 construct: amino terminal GST fusion of residues 1-391 of human PLK4; made in house; host or cells: E. coli
T2 sequence (O00444 1-391): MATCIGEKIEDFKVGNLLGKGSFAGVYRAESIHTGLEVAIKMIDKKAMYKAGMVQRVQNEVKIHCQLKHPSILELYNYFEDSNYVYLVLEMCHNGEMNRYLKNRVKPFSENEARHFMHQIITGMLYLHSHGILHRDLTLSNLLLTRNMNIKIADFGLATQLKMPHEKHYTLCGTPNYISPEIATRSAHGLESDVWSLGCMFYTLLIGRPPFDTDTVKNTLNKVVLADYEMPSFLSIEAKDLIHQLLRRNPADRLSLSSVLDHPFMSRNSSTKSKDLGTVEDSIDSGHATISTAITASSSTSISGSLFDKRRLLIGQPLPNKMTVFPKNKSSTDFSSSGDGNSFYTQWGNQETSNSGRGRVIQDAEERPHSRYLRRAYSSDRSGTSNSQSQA
Protocol: The protein was purified from clarified cell extracts after induction at 15° C. overnight using glutathione sepharose, gel permeation chromatography, and ion exchange (Resource Q). The resulting protein was dephosphorylated with lambda phosphatase (NEB cat# P0753), and resolved from the phosphatase using gluthione sepharose. The dephosphorylated GST-PLK4 was stored in aliquots at −80° C. until use.
PLK4 activity was measured using an indirect ELISA detection system. […] The colourimetric reaction was allowed to continue for 5 minutes, followed by addition of stop solution (0.5 N sulphuric acid), and quantified by detection at 450 nm with either a monochromatic or filter based plate reader (Molecular Devices M5 or Beckman DTX880, respectively).
Compounds were pre-incubated in the presence of enzyme for 15 minutes prior to addition of ATP and the activity remaining quantified using the above described activity assay. […] The IC50 value was determined using a non-linear 4 point logistic curve fit (XLfit4, IDBS) with the formula; (A+(B/(1+((x/C){grave over ( )}D)))), where A=background value, B=range, C=inflection point, D=curve fit parameter.

[1] = tested on: MCF-7 luminal breast cancer cell line; test: Cell growth inhibition, Sulforhodamine B assay (SRB); assay type: cell-based; details: Homo sapiens, MCF7, 120 h, read-out: Cell Line GI50 Range MCF-7
Protocol: (§1) The cells were cultured for 5 days before the Sulforhodamine B assay (SRB) was performed to determine the compound's cell growth inhibition activity.
(§2) Sulforhodamine B (purchased from Sigma, Oakville, ON, Canada) is a water-soluble dye that binds to the basic amino acids of the cellular proteins. Thus, colorimetric measurement of the bound dye provides an estimate of the total protein mass that is related to the cell number. the cells are fixed in situ by gently aspirating off the culture media and adding 50 μl ice cold 10% Trichloroacetic Acid (TCA) per well and incubate at 4° C. for 30-60 min, The plates are washed with water five times and allowed to air dry for 5 min. […] Following staining, plates are washed four times with 1% acetic acid to remove unbound dye and then allowed to air dry for 5 min. […] Absorbance is read at 570 nm.
(§3) The percentage (%) of relative growth inhibition was calculated by comparing to DMSO treated only cells (100%). GI50's were determined for compounds with cytotoxic activity. The GI50 was calculated using GraphPad PRISM software (GraphPad Software, Inc., San Diego, Calif., USA).

[2] = tested on: MDA-MB-468 basal breast cancer cell line; test: as above; assay type: cell-based; details: Homo sapiens, 5 days culture, SRB
Protocol: as §1, §2, §3

[3] = tested on: HCC1954 basal breast cancer cell line; test: as above; assay type: cell-based; details: Homo sapiens, 5 days culture, SRB
Protocol: as §1, §2, §3

[4] = tested on: SW620 colon cancer cell line; test: as above; assay type: cell-based; details: Homo sapiens, SW-620, 120 h, read-out: Cell Line GI50 Range SW-620
Protocol: as §1, §2, §3

[5] = tested on: A549 lung cancer cell line; test: as above; assay type: cell-based; details: Homo sapiens, read-out: Cell Line GI50 Range A-549
Protocol: as §1, §2, §3

Aurora A = biological target: T3, Aurora A (Homo sapiens, UniProt O14965); test: Aurora A Inhibition Assay (Z-Lyte); assay type: biochemical; details: 1 μM compound; 20 μM ATP; read-out: Aurora A relative inhibition percentage at a dose of 1 μM
T3 construct: purchased Invitrogen PV3612
T3 sequence (O14965 1-403): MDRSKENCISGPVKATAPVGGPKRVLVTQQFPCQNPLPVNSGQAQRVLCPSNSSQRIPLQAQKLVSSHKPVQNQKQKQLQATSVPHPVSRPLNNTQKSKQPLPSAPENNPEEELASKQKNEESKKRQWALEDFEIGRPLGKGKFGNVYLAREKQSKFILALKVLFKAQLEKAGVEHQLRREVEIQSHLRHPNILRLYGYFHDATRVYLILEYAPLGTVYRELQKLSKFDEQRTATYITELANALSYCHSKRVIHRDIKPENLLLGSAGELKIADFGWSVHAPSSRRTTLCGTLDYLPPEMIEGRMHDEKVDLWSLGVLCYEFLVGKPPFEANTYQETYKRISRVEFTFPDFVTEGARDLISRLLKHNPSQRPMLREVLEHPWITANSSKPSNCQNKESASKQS
Protocol: Aurora A inhibition was determined using the Z-Lyte assay kit from Invitrogen. The assay was performed using the recommended manufacturer's instructions with 20 μM ATP and 12 nM Aurora A (Invitrogen cat # PV3612). The % inhibition values were determined according to the manufacturer's directions and IC50 values were obtained using a non-linear 4 point logistic curve fit (XLfit4, IDBS)

AMPKalpha = test: CEREP HTRF kinase selectivity assay; assay type: biochemical, human
Protocol: The inhibitory activity of selected compounds of the invention was evaluated against a panel of 45 different kinase enzymes by CEREP, France. The assays were performed using standard HTRF assay methods as documented by CEREP against the human orthologues of Ab1 kinase, Akt1/PKBa, AMPKa, BMX kinase (Etk), Brk, CaMK2a, CaMK4, CDC2/CDK1 (cycB), CHK1, CHK2, c-Met kinase, CSK, EphB4 kinase, ERKI, ERK2 (P42mapk), FGFR2 kinase, FGFR4 kinase, FLT-1 kinase (VEGFR1), FLT-3 kinase, Fyn kinase, 1GF1R kinase, IRK (InsR), JNK 2, KDR kinase (VEGFR2), Lck kinase, Lyn kinase, MAPKAPK2, MEK1/MAP2K1, p38a kinase, p38d kinase, p38 g kinase, PDGFRb kinase, PDKI, PKA, PKCa, PKCb1, PKCb2, PKCg, Ret kinase, ROCK2, RSK2, Src kinase, Syk, and TRKA (Table 3). The % Inhibition was determined by the formula; % Inhibition=100×(1−(experimental value−background value)/(high activity control−background value)).

HUV-EC-C cells = test: In Vitro Angiogenesis Assay (tube formation); details: HUV-EC-C cells on ECMatrix, 4 hr; FIGS. 1 and 2
[6] = 15 μM ATP, read-out: PLK4 IC50 Ranges
[7] = MCF-7 luminal breast cancer cell line, 5 days culture, SRB
[8] = 120 h, MDA-MB-468 basal breast cancer cell line, read-out: Cell Line GI50 Range MDA-MB-468
[9] = 120 h, HCC1954 basal breast cancer cell line, read-out: Cell Line GI50 Range HCC-1954
[10] = SW620 colon cancer cell line, 5 days culture, SRB
[11] = 120 h, A549 lung cancer cell line, 5 days culture, SRB
[12] = MDA-MB-468, 120 h, read-out: Cell Line GI50 Range MDA-MB-468, MDA-MB-468 basal breast cancer cell line
[13] = HCC1954, 120 h, read-out: Cell Line GI50 Range HCC-1954, HCC1954 basal breast cancer cell line
[14] = HCC1954, 120 h, HCC1954 basal breast cancer cell line, read-out: Cell Line GI50 Range HCC-1954

Compound	IC50 (Aurora B) [nM]	IC50 (human PLK4; [6]) [nM]	GI50 [1, 7] [nM]	GI50 [2, 8] [nM]	GI50 [4, 10] [nM]	GI50 [5, 11] [nM]	IC50 (human PLK4) [nM]	other results
COc1ccc2c(c1)[C@@]1(C[C@@H]1c1ccc3c(-c4ccc(N5CCNCC5)nc4)n[nH]c3c1)C(=O)N2 (racemic) [Example A21, 4-(5-(6-((1R*,2S*)-5′-Methoxy-2′-oxospiro[cyclopropane-1,3′-indoline]-2-yl)-1H-indazol-3-yl)pyridinium-2-yl)piperazine bis(2,2,2-trifluoroacetate)]	< 100	< 100	< 100	100 to 1000	1000 to 10000	1000 to 10000	–	GI50 [3, 9]: > 10000 nM
COc1ccc2c(c1)[C@@]1(C[C@@H]1c1ccc3c(-c4cccc(CCO)c4)n[nH]c3c1)C(=O)N2 (racemic) [Example A46, (1R*,2S*)-2-(3-(3-(2-hydroxethyl)phenyl)-1H-indazol-6-yl)-5′-methoxy spiro[cyclopropane-1,3′-indolin]-2′-one]	–	< 100	1000 to 10000	1000 to 10000	> 10000	1000 to 10000	–	GI50 [3, 9]: > 10000 nM
COc1ccc2c(c1)[C@@]1(C[C@@H]1c1ccc3c(-c4ccc(N5CCNCC5)cc4)n[nH]c3c1)C(=O)N2 (racemic) [Example A48, (1R*,2S*)-5′-methoxy-2-(3-(4-(piperazin-1-yl)phenyl)-1H-indazol-6-yl)spiro[cyclopropane-1,3′-indolin]-2′-one 2,2,2-trifluoroacetate]	< 100	–	–	–	–	–	< 100	inhibition at 1 µM (Aurora A): < 50%; GI50 [1]: < 100 nM; GI50 [2, 12]: < 100 nM; GI50 [3, 13]: 1000 to 10000 nM; GI50 [4]: 1000 to 10000 nM; GI50 ([5]; A549, 120 h): < 100 nM
COc1ccc2c(c1)[C@@]1(C[C@@H]1c1ccc3c(-c4ccc(N5CCC(N(C)C)CC5)cc4)n[nH]c3c1)C(=O)N2 (racemic) [Example A119, (1R*,2S*)-2-(3-(4-(4-(dimethlamino)piperidin-yl)phenyl)-1H-indazol-6-yl)-5′-methoxyspiro[cyclopropane-1,3′-indolin]-2′-one 2,2,2-trifluoroacetate]	< 100	< 100	< 100	< 100	< 100	< 100	–	GI50 [3, 14]: 100 to 1000 nM
COc1ccc2c(c1)[C@@]1(C[C@@H]1c1ccc3c(/C=C/c4csc(CN(C)C)c4)n[nH]c3c1)C(=O)N2 (racemic) [Example A181, (1R*,2S*)-2-(3-((E)-2-(5-((dimethylamino)methyl)thiophen-3-yl)vinyl)-1H-indazol-6-yl)-5′-methoxyspiro[cyclopropane-1,3′-indolin]-2′-one 2,2,2-trifluoro acetate]	< 100	< 100	< 100	< 100	< 100	< 100	–	GI50 [3, 14]: 100 to 1000 nM
O=C1Nc2ccccc2[C@]12C[C@H]2c1ccc2c(I)n[nH]c2c1 (relative stereo) [Example A9, (1R*,2S*)-2-(3-iodo-1H-indazol-6-yl)spiro[cyclopropane-1,3′-indolin]-2′-one]	–	–	–	–	–	–	100 to 1000	–
COc1ccc2c(c1)[C@]1(C[C@H]1c1ccc3c(-c4ccc(N5CCN(C)CC5)nc4)n[nH]c3c1)C(=O)N2 (relative stereo) [Example A13, (1R*,2S*)-5′-Methoxy-2-(3-(6-(4-methylpiperazin-1-yl)pyridin-3-yl)-1H-indazol-6-yl)spiro[cycloropane-1,3′-indolin]-2′-one]	–	–	–	–	–	–	–	% Inhibition @ 10 uM (AMPKalpha): 8%; anti-angiogenic effect (tube formation, % of control tube count) (HUV-EC-C cells): anti-agiogenic effects at submicromolar concentrations
COc1ccc2c(c1)[C@]1(C[C@H]1c1ccc3c(/C=C/c4cc(F)c(CN(C)C)c(F)c4)n[nH]c3c1)C(=O)N2 (relative stereo) [Example A215, (1R*,2 S*)-(E)-2-(3-(4-((dimethylamino)methyl)-3,5-difluorostyryl)-1H-indazol-6-yl)-5′-methoxyspiro[cyclopropane-1,3′-indolin]-2′-one 2,2,2-trifluoro acetate]	< 100	< 100	–	–	–	–	–	–
COc1ccc2c(c1)[C@]1(C[C@H]1c1ccc3c(-c4ccc(N5CCNCC5)cc4)n[nH]c3c1)C(=O)N2 [Example A49, (1R,2S)-5′-methoxy-2-(3-(4-(piperazin-1-yl)phenyl)-1H-indazol-6-yl)spiro[cyclopropane-1,3′-indolin]-2′-oneone 2,2,2-trifluoroacetate]	< 100	–	–	–	–	–	< 100	inhibition at 1 µM (Aurora A): < 50%; GI50 [1]: < 100 nM; GI50 [2, 12]: < 100 nM; GI50 [3, 13]: 1000 to 10000 nM; GI50 [4]: 1000 to 10000 nM; GI50 ([5]; A549, 120 h): < 100 nM
